ChEMBL document CHEMBL1201862, “PubChem BioAssay data set” (2004)
The source made the active and inactive calls. Rule as the data show it, for most assays here: actives have a measured EC50 and inactives only a lower limit.

Test system: Streptococcus
Assay: Group A Streptococcus viability loss, dose response, counter-screen for streptokinase expression inhibitor project, luminescence, BacTiterGlo (AID 1915);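 also: potency for reduction of bacterial viability or growth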
Assay type: functional, organism-based
Details: not given

Compound	EC50
Cc1nc(SCC(=O)c2cccs2)c2oc3ccccc3c2n1	20.1 µM (active)
O=C(COc1ccc([N+](=O)[O-])cc1)Nc1nc(-c2ccccn2)cs1	13.8 µM (active)

Test system: not listed separately
Assay: Vero E6 cell cytotoxicity, dose response, cytotoxicity control for non-replicating M. tuberculosis project, secondary assay (AID 492998)
Assay type: functional, VeroE6
Details: Mycobacterium tuberculosis, Vero C1008

Compound	CC50
O=C(NC1CCCCC1)c1nc(O)c2nnn(Cc3ccccc3Cl)c2n1	19.9 µM (active)
O=C1NC(=O)N(Cc2ccccc2Cl)C(=O)/C1=C/c1ccc[nH]1	9.48 µM (active)
c1ccc(Nc2nc(-c3ccccn3)cs2)cc1	> 20 µM (active)

Test system: H9c2;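 also: confirmatory concentration-response retest of ultra-high-throughput screening hits for modulation of myocardial damage; cell death induced by hydrogen peroxide oxidative stress; compound pretreatment for 60 min then peroxide exposure for 2 h; potency is for protecting the cells against peroxide damage rather than for killing them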
Assay: cells
Assay type: functional, cell-based
Details: Rattus norvegicus, H9c2, Myocardium

Compound	IC50
O=C(CSc1nnc(-c2cccnc2)o1)c1cc2ccccc2oc1=O	> 79 µM (inactive)
O=C(O)c1nn(CCOc2ccccc2F)c(=O)c2ccccc12	> 79 µM (inactive)
CCCN1Cc2cccc(C(N)=O)c2C1=O	> 79 µM (inactive)
CN(C)CCNc1ccc(-c2nnc(O)c3ccccc23)cc1[N+](=O)[O-]	> 79 µM (inactive)
O=C(NC(O)C(=O)c1cccs1)c1cccnc1 (centres undefined)	> 79 µM (inactive)
O=C(Cn1[nH]c(=O)c2ccccc2c1=O)OCC(=O)N(Cc1ccccc1)Cc1ccccc1	36 µM (inactive)
COc1cc(OC)c(-c2nn3c(-c4ccco4)nnc3s2)cc1OC	> 79 µM (inactive)
O=C(COc1ccc([N+](=O)[O-])cc1)Nc1nc(-c2ccccn2)cs1	11.8 µM (active)
C[C@H](CO)N1C[C@H](C)[C@@H](CN(C)S(=O)(=O)c2ccccc2)Oc2ccc(NC(=O)Nc3ccccc3)cc2C1=O	13.3 µM (active)
O=C1N[C@H]2CC=C[C@H]2Nc2ccccc21	44.8 µM (inactive)
CC(=O)Nc1cccc(-c2cc(NC(C)=O)c3ncc(-c4ccccc4)n3c2)c1	> 79 µM (inactive)
COc1cc(-c2cc(NC(C)=O)c3ncc(-c4ccc(C(C)=O)cc4)n3c2)cc(OC)c1OC	> 79 µM (inactive)

Test system: not listed separately
Assay: THP-1 cell cytotoxicity, dose response, cytotoxicity control for non-replicating M. tuberculosis project (AID 489025)
Assay type: functional
Details: not given

Compound	CC50
O=C(NC1CCCCC1)c1nc(O)c2nnn(Cc3ccccc3Cl)c2n1	> 40 µM (active)
O=C1NC(=O)N(Cc2ccccc2Cl)C(=O)/C1=C/c1ccc[nH]1	9.35 µM (active)

Test system: H4
Assay: Luminescence Cell-Based Dose Response HTS to Identify Activators of 5'UTR Stem-Loop Driven Prion Protein mRNA Translation in H4 Neuroglioblastoma Cells. [Related pubchem assays: 1829 (Project Summary), 1814 (Primary HTS)]
Assay type: functional
Details: Homo sapiens

Compound	EC50
CCc1nnc(NC(=O)c2ccc(-c3ccccc3Cl)o2)s1	18.9 µM (active)
Cc1nc2cc(NC(=O)c3ccc(S(=O)(=O)N(C)c4ccccc4)cc3)ccc2o1	15.1 µM (active)
c1ccc2oc(C3=NN=C(NC4CC4)SC3)cc2c1	> 120 µM (not active)
Cc1nc(SCC(=O)c2cccs2)c2oc3ccccc3c2n1	68 µM (active)
COc1ccc(-c2nnc3c4ccccc4c(C)nn23)cc1	> 120 µM (not active)
OC1(C(F)(F)F)CC(O)(C(F)(F)F)n2nc(-c3ccccc3)cc2N1 (centres undefined)	11 µM (active)

Test system: not listed separately
Assay: Luminescence Cell-Based Dose Response HTS to Identify Inhibitors of 5'UTR Stem-Loop Driven Prion Protein mRNA Translation in H4 Neuroglioblastoma Cells. [Related pubchem assays: 1827 (Project Summary), 1813 (Primary HTS)]
Assay type: functional
Details: not given

Compound	EC50
O=C(COc1ccc([N+](=O)[O-])cc1)Nc1nc(-c2ccccn2)cs1	11.8 µM (active)

Test system: not listed separately
Assay: inhibitors of SNCA 5'UTR-driven reporter translation, confirmation, H4 neuroglioma cells, luminescence (AID 1988)
Assay type: functional, cell-based
Details: not given

Compound	EC50
O=C(COc1ccc([N+](=O)[O-])cc1)Nc1nc(-c2ccccn2)cs1	> 120 µM (not active)

Test system: not listed separately
Assay: cytotoxicity toward NIH3T3 fibroblasts, dose response, counter-screen, cell-based, ATP luminescence, mouse fibroblasts (AID 2010);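 also: cells exposed to compound for about 90 hours before reading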
Assay type: functional
Details: not given

Compound	EC50
O=C(COc1ccc([N+](=O)[O-])cc1)Nc1nc(-c2ccccn2)cs1	8.46 µM (active)

Test system: not listed separately
Assay: inhibitors of intracellular T. cruzi replication, confirmation, NIH3T3 host cells, beta-gal luminescence (AID 2044);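 also: intracellular parasites grown in NIH/3T3 mouse fibroblasts as host cells; luminescent beta-galactosidase reporter signal from transgenic T. cruzi replicating inside host cells; inhibitors lower the luminescence signal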
Assay type: functional, cell-based
Details: not given

Compound	EC50
O=C(COc1ccc([N+](=O)[O-])cc1)Nc1nc(-c2ccccn2)cs1	1.79 µM (active)

Target: T1, Streptokinase A (Streptococcus pyogenes serotype M1, UniProt P10520)
T1 sequence (P10520 whole entry): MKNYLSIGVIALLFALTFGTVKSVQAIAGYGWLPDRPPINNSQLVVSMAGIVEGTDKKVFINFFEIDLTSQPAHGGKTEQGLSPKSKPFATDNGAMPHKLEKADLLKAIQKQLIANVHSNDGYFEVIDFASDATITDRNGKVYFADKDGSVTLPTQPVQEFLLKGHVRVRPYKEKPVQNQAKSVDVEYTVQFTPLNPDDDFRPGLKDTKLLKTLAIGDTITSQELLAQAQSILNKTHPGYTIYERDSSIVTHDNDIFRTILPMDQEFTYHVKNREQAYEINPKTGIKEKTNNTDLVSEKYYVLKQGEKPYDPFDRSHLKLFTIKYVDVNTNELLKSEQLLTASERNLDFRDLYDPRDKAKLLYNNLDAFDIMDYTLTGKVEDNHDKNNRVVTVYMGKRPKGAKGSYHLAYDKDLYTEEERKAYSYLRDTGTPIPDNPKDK
Assay: S. pyogenes streptokinase expression inhibitors, potency, dose response, plasminogen activation absorbance, OD405 (AID 1914);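 also: secreted streptokinase activity via plasminogen activation per viability signal from cell pellet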
Assay type: functional, Streptococcus pyogenes M1 GAS
Details: not given

Compound	EC50
Cc1nc(SCC(=O)c2cccs2)c2oc3ccccc3c2n1	> 150 µM (not active)
O=C(COc1ccc([N+](=O)[O-])cc1)Nc1nc(-c2ccccn2)cs1	> 150 µM (not active)

Test system: not listed separately
Assay: Luminescence Cell-Based Dose Confirmation HTS to Identify Activators of 5'UTR Stem-Loop Driven Alpha-Synuclein mRNA Translation in H4 Neuroglioblastoma Cells. [Related pubchem assays: 1829 (Project Summary), 1814 (Primary HTS)]
Assay type: functional
Details: not given

Compound	EC50
CCc1nnc(NC(=O)c2ccc(-c3ccccc3Cl)o2)s1	> 120 µM (not active)
Cc1nc2cc(NC(=O)c3ccc(S(=O)(=O)N(C)c4ccccc4)cc3)ccc2o1	26 µM (active)
c1ccc2oc(C3=NN=C(NC4CC4)SC3)cc2c1	> 120 µM (not active)
Cc1nc(SCC(=O)c2cccs2)c2oc3ccccc3c2n1	21.5 µM (active)
COc1ccc(-c2nnc3c4ccccc4c(C)nn23)cc1	13.3 µM (active)
OC1(C(F)(F)F)CC(O)(C(F)(F)F)n2nc(-c3ccccc3)cc2N1 (centres undefined)	> 120 µM (not active)

Test system: not listed separately
Assay: inhibitors of firefly luciferase expression or activity, dose response, H4 neuroglioma cells, luminescence (AID 1990)
Assay type: functional, cell-based
Details: not given

Compound	EC50
O=C(COc1ccc([N+](=O)[O-])cc1)Nc1nc(-c2ccccn2)cs1	> 120 µM (not active)

Test system: Streptococcus sp. 'group A'
Assay: growth inhibition of control SK(-) GAS strain, dose response, counter-screen for streptokinase expression inhibitor project, luminescence, kanamycin, BacTiterGlo, confirmation (AID 1900)
Assay type: functional, organism-based
Details: not given

Compound	EC50
Cc1nc(SCC(=O)c2cccs2)c2oc3ccccc3c2n1	21.2 µM (active)
O=C(COc1ccc([N+](=O)[O-])cc1)Nc1nc(-c2ccccn2)cs1	5.56 µM (active)

Test system: not listed separately
Assay: Luminescence Cell-Based Dose Response HTS to Identify Activators of Luciferase Translation or Activity in H4 […] Cells. [Related pubchem assays: 1829 (Project Summary), 1814 (Primary HTS)]
Assay type: functional
Details: not given

Compound	EC50
CCc1nnc(NC(=O)c2ccc(-c3ccccc3Cl)o2)s1	6.73 µM (active)
Cc1nc2cc(NC(=O)c3ccc(S(=O)(=O)N(C)c4ccccc4)cc3)ccc2o1	23.9 µM (active)
c1ccc2oc(C3=NN=C(NC4CC4)SC3)cc2c1	> 120 µM (not active)
Cc1nc(SCC(=O)c2cccs2)c2oc3ccccc3c2n1	16 µM (active)
COc1ccc(-c2nnc3c4ccccc4c(C)nn23)cc1	18.6 µM (active)
OC1(C(F)(F)F)CC(O)(C(F)(F)F)n2nc(-c3ccccc3)cc2N1 (centres undefined)	> 120 µM (not active)

Test system: not listed separately
Assay: cells
Assay type: functional
Details: not given

Compound	IC50
O=C(NC1CCCCC1)c1nc(O)c2nnn(Cc3ccccc3Cl)c2n1	29.9 µM (active)
O=C1NC(=O)N(Cc2ccccc2Cl)C(=O)/C1=C/c1ccc[nH]1	1.04 µM (active)
c1ccc(Nc2nc(-c3ccccn3)cs2)cc1	0.19 µM (active)
